Laboratory results: article PMC7870075, “Physicochemical properties and formulation development of a novel compound inhibiting Staphylococcus aureus biofilm formation” (PLoS ONE, 2021)
Several values for one entry are separate records, joined by “and”; a condition that tells them apart may be missing. Identical values can stand only once. Like-named read-outs stand apart in the source and are kept apart here.

Experiments:
TZM-bL cells = experiment: Mammalian cell cytotoxicity assay (CCK-8); type: cell-based, human; settings: for Cell viability %: single samples
Description: (§1) Cell cytotoxicity assay was performed by following previous protocols with minor revision. TZM-bL cells which is a HeLa cell derivative (a generous gift from Dr. Xiao Heng, University of Missouri) (100 μL, 5,000 cells per well) were grown in Dulbecco’s modified Eagle’s medium (DMEM) (Life Technologies, Grand Island, NY, USA) with 10% fetal bovine serum for 24 h at 37°C in 5% CO2 in duplicates. Supernatant was replaced with 100 μL fresh medium with different concentrations of CCG-211790 to culture the cells for 24 h at 37°C in 5% CO2. DMSO was used as the vehicle control. Ten μL of Cell Counting Kit-8 (CCK-8) solution (APExBIO, Houston, TX, USA) was added to each well of the plate. After 2 h, the plate was read at 450 nm by using a BioTek spectrophotometer (BioTek, Winooski, VT, USA). One hundred percent viability was set at the absorbance of the cells treated with only the vehicle (DMSO). The assay was performed twice in duplicates to obtain the mean and standard deviation of cell viability. The cell viability (survival rate) was calculated with the equation: Survival rate (%) = [(As—Ab) / (Ac—Ab)] x 100, As = Absorbance of tested compound (Absorbance of well containing cells, culture medium, CCK-8 and compound), Ab = Absorbance of blank (Absorbance of well containing culture medium and CCK-8), Ac = Absorbance of control (Absorbance of well containing cell, DMSO and CCK-8).

[1] = Mammalian cell cytotoxicity assay (CCK-8); type: cell-based, human; settings: human, TZM-bL cells, 24 h
Description: as §1

[2] = TZM-bL cells (HeLa cell derivative), single samples, read-out: Cell viability %
[3] = TZM-bL cells (HeLa cell derivative), read-out: Mean of cell viability

## COc1ccc2c(c1)-c1nc(SCC(F)(F)F)n(C)c(=O)c1C(C)(C)C2 [CCG-211790, 9-Methoxy-3,5,5-trimethyl-2-((2,2,2-trifluoroethyl)thio)-5,6-dihydrobenzo[h]quinazolin-4(3H)-one]
TZM-bL cells; 50 μM on TZM-bL cells vs biofilm IC50
  cytotoxic concentration (50 μM) as fold of the anti-biofilm IC50: about 39 fold
TZM-bL cells; TZM-bL cells, 6.25 µM, 24 h
  Cell viability %: 86.99% and 84.77% and 85.92%
TZM-bL cells; TZM-bL cells, 12.5 µM, 24 h
  Cell viability %: 82.11% and 70.18% and 71.70%
TZM-bL cells; TZM-bL cells, 25 µM, 24 h
  Cell viability %: 69.05% and 56.68% and 66.50%
TZM-bL cells; TZM-bL cells, 50 μM, 24 h, normalized to DMSO
  cell survival rate (mean of cell viability): 56.05%
TZM-bL cells; TZM-bL cells, 50 µM, 24 h
  Cell viability %: 57.46% and 48.66% and 56.82%
[1]; [2]
  viability at 24 h, 6.25 µM: 79.6%
  viability at 24 h, 12.5 µM: 80.8%
  viability at 24 h, 25 µM: 69%
[1]; [3]
  viability at 24 h, 6.25 µM: 84.3%
  viability at 24 h, 12.5 µM: 76.2%
  viability at 24 h, 25 µM: 65.3%
[1]; TZM-bL cells (HeLa cell derivative), 50 µM, single samples, read-out: Cell viability %
  viability at 24 h, 50 µM: 61.3%
[1]; TZM-bL cells (HeLa derivative), 50 μM, normalized to DMSO, read-out: cell survival rate (mean of cell viability)
  viability at 24 h, 50 µM: 56.1 ± 5.3%
